{"source": "Sander's compilation of Henry's law constants", "key": {"[1]": {"assay": "Henry solubility constant Hcp at 295 K (mol/(m3 Pa))"}, "[2]": {"assay": "Henry solubility constant Hcp at 298.15 K (mol/(m3 Pa))"}, "[3]": {"assay": "Henry solubility constant Hcp at 303 K (mol/(m3 Pa))"}, "[4]": {"assay": "Henry solubility constant Hcp at 296 K (mol/(m3 Pa))"}, "[5]": {"assay": "Henry solubility constant Hcp at 293 K (mol/(m3 Pa))"}, "[6]": {"assay": "Henry solubility constant Hcp at 310 K (mol/(m3 Pa))", "details": "reference: McIntosh and Heffron (2000)"}, "[7]": {"details": "reference: de Wolf and Lieder (1998)"}, "[8]": {"details": "reference: Meynier et al. (2003)"}, "[9]": {"details": "reference: Warner et al. (1980)"}, "[10]": {"details": "reference: Bissonette et al. (1990)"}, "[11]": {"details": "reference: Cooling et al. (1992)"}, "[12]": {"details": "reference: Gossett et al. (1985)"}, "[13]": {"details": "reference: Khalfaoui and Newsham (1994b)"}, "[14]": {"details": "reference: Lincoff and Gossett (1984)"}, "[15]": {"details": "reference: Ramachandran et al. (1996)"}, "[16]": {"details": "reference: Chiang et al. (1998)"}, "[17]": {"details": "reference: Pearson and McConnell (1975)"}, "[18]": {"details": "reference: Yurteri et al. (1987)"}, "[19]": {"details": "reference: Fendinger et al. (1989)"}, "[20]": {"details": "reference: Kieckbusch and King (1979b)"}, "[21]": {"details": "reference: Hartkopf and Karger (1973)"}}}
{"smiles": "Brc1ccccc1", "note": "[bromobenzene]", "values": [{"measurement": "Henry solubility constant Hcp at 295 K", "setting": "[1]; [7]", "value": 0.005}, {"measurement": "Henry solubility constant Hcp", "setting": "[2]; reference: Lau et al. (2010)", "value": 0.0039}]}
{"smiles": "CCC/C=C/C=O", "note": "[(E)-2-hexenal]", "values": [{"measurement": "Henry solubility constant Hcp at 303 K", "setting": "[3]; [8]", "value": 0.9}, {"measurement": "Henry solubility constant Hcp", "setting": "[2]; reference: Buttery et al. (1971)", "value": 0.2}]}
{"smiles": "Clc1cccc(Cl)c1", "note": "[1,3-dichlorobenzene]", "values": [{"measurement": "Henry solubility constant Hcp at 295 K", "setting": "[1]; [7]", "value": 0.0037}, {"measurement": "Henry solubility constant Hcp", "setting": "[2]; reference: Li et al. (2008)", "value": 0.0029}, {"measurement": "Henry solubility constant Hcp", "setting": "[2]; [9]", "value": 0.0038}]}
{"smiles": "ClC=C(Cl)Cl", "note": "[trichloroethene]", "values": [{"measurement": "Henry solubility constant Hcp", "setting": "[2]; reference: Bierwagen and Keller (2001)", "value": 0.0012}, {"measurement": "Henry solubility constant Hcp", "setting": "[2]; [10]", "value": 0.001}, {"measurement": "Henry solubility constant Hcp", "setting": "[2]; reference: Chen et al. (2012)", "value": 0.001}, {"measurement": "Henry solubility constant Hcp", "setting": "[2]; [11]", "value": 0.00097}, {"measurement": "Henry solubility constant Hcp", "setting": "[2]; reference: Ervin et al. (1980)", "value": 0.00074}, {"measurement": "Henry solubility constant Hcp", "setting": "[2]; reference: Garbarini and Lion (1985)", "value": 0.001}, {"measurement": "Henry solubility constant Hcp", "setting": "[2]; reference: Gossett (1987)", "value": 0.001}, {"measurement": "Henry solubility constant Hcp", "setting": "[2]; [12]", "value": 0.0011}, {"measurement": "Henry solubility constant Hcp", "setting": "[2]; reference: Görgényi et al. (2002)", "value": 0.00095}, {"measurement": "Henry solubility constant Hcp", "setting": "[2]; reference: Heron et al. (1998)", "value": 0.00093}, {"measurement": "Henry solubility constant Hcp", "setting": "[2]; [13]", "value": 0.00095}, {"measurement": "Henry solubility constant Hcp", "setting": "[2]; reference: Knauss et al. (2000)", "value": 0.0011}, {"measurement": "Henry solubility constant Hcp", "setting": "[2]; [14]", "value": 0.00097}, {"measurement": "Henry solubility constant Hcp", "setting": "[2]; reference: Munz and Roberts (1987)", "value": 0.00096}, {"measurement": "Henry solubility constant Hcp", "setting": "[2]; reference: Nielsen et al. (1994)", "value": 0.0013}, {"measurement": "Henry solubility constant Hcp", "setting": "[2]; reference: Park et al. (1997)", "value": 0.00088}, {"measurement": "Henry solubility constant Hcp", "setting": "[2]; reference: Peng and Wan (1997)", "value": 0.0011}, {"measurement": "Henry solubility constant Hcp", "setting": "[2]; reference: Peng and Wan (1998)", "value": 0.0014}, {"measurement": "Henry solubility constant Hcp", "setting": "[2]; [15]", "value": 0.00083}, {"measurement": "Henry solubility constant Hcp", "setting": "[2]; reference: Robbins et al. (1993)", "value": 0.00094}, {"measurement": "Henry solubility constant Hcp", "setting": "[2]; reference: Schoene and Steinhanses (1985)", "value": 0.0009}, {"measurement": "Henry solubility constant Hcp", "setting": "[2]; reference: Shimotori and Arnold (2003)", "value": 0.001}, {"measurement": "Henry solubility constant Hcp", "setting": "[2]; reference: Tancrède and Yanagisawa (1990)", "value": 0.0013}, {"measurement": "Henry solubility constant Hcp", "setting": "[2]; reference: Turner et al. (1996)", "value": 0.00085}, {"measurement": "Henry solubility constant Hcp", "setting": "[2]; reference: Vane and Giroux (2000)", "value": 0.0011}, {"measurement": "Henry solubility constant Hcp", "setting": "[2]; [9]", "value": 0.00084}, {"measurement": "Henry solubility constant Hcp at 296 K", "setting": "[4]; reference: David et al. (2000)", "value": 0.001}, {"measurement": "Henry solubility constant Hcp at 293 K", "setting": "[5]; [16]", "value": 0.0011}, {"measurement": "Henry solubility constant Hcp at 293 K", "setting": "[5]; [17]", "value": 0.0011}, {"measurement": "Henry solubility constant Hcp at 293 K", "setting": "[5]; [18]", "value": 0.00094}]}
{"smiles": "CC[N+](=O)[O-]", "note": "[nitroethane]", "values": [{"measurement": "Henry solubility constant Hcp at 303 K", "setting": "[3]; reference: Friant and Suffet (1979)", "value": 0.14}, {"measurement": "Henry solubility constant Hcp", "setting": "[2]; reference: Beneš and Dohnal (1999)", "value": 0.22}]}
{"smiles": "[CH3][Hg][Cl]", "note": "[chloromethylmercury]", "values": [{"measurement": "Henry solubility constant Hcp at 295 K", "setting": "[1]; reference: Talmi and Mesmer (1975)", "value": 15}, {"measurement": "Henry solubility constant Hcp", "setting": "[2]; reference: Iverfeldt and Lindqvist (1982)", "value": 22}]}
{"smiles": "CCCCC(CC)COC(=O)CCCCC(=O)OCC(CC)CCCC", "note": "(stereo unspecified) [di-(2-ethylhexyl)-adipate]", "values": [{"measurement": "Henry solubility constant Hcp at 295 K", "setting": "[1]; reference: Felder et al. (1986)", "value": 23}]}
{"smiles": "CCCN(CCC)c1c([N+](=O)[O-])cc(C(F)(F)F)cc1[N+](=O)[O-]", "note": "[trifluralin]", "values": [{"measurement": "Henry solubility constant Hcp", "setting": "[2]; [19]", "value": 0.17}, {"measurement": "Henry solubility constant Hcp at 296 K", "setting": "[4]; [19]", "value": 0.19}, {"measurement": "Henry solubility constant Hcp at 293 K", "setting": "[5]; reference: Rice et al. (1997b)", "value": 0.095}]}
{"smiles": "CCCCCOC(C)=O", "note": "[pentyl ethanoate]", "values": [{"measurement": "Henry solubility constant Hcp at 303 K", "setting": "[3]; [8]", "value": 0.13}, {"measurement": "Henry solubility constant Hcp", "setting": "[2]; [20]", "value": 0.028}]}
{"smiles": "Clc1ccccc1", "note": "[chlorobenzene]", "values": [{"measurement": "Henry solubility constant Hcp at 295 K", "setting": "[1]; [7]", "value": 0.0034}, {"measurement": "Henry solubility constant Hcp", "setting": "[2]; [10]", "value": 0.0024}, {"measurement": "Henry solubility constant Hcp", "setting": "[2]; [11]", "value": 0.003}, {"measurement": "Henry solubility constant Hcp", "setting": "[2]; reference: Ervin et al. (1980)", "value": 0.0029}, {"measurement": "Henry solubility constant Hcp", "setting": "[2]; reference: Ettre et al. (1993)", "value": 0.0031}, {"measurement": "Henry solubility constant Hcp", "setting": "[2]; [21]", "value": 0.0028}, {"measurement": "Henry solubility constant Hcp", "setting": "[2]; [13]", "value": 0.003}, {"measurement": "Henry solubility constant Hcp", "setting": "[2]; reference: Lau et al. (2010)", "value": 0.0017}, {"measurement": "Henry solubility constant Hcp", "setting": "[2]; reference: Lei et al. (2004)", "value": 0.0015}, {"measurement": "Henry solubility constant Hcp", "setting": "[2]; reference: Li et al. (2008)", "value": 0.0024}, {"measurement": "Henry solubility constant Hcp", "setting": "[2]; reference: Mackay et al. (1979)", "value": 0.0026}, {"measurement": "Henry solubility constant Hcp", "setting": "[2]; reference: Park et al. (1997)", "value": 0.0019}, {"measurement": "Henry solubility constant Hcp", "setting": "[2]; [15]", "value": 0.0029}, {"measurement": "Henry solubility constant Hcp", "setting": "[2]; [9]", "value": 0.0025}, {"measurement": "Henry solubility constant Hcp at 293 K", "setting": "[5]; [18]", "value": 0.0031}]}
{"smiles": "CCCOC(C)=O", "note": "[propyl ethanoate]", "values": [{"measurement": "Henry solubility constant Hcp at 303 K", "setting": "[3]; reference: Richon et al. (1985)", "value": 0.031}, {"measurement": "Henry solubility constant Hcp", "setting": "[2]; reference: Fenclová et al. (2014)", "value": 0.045}, {"measurement": "Henry solubility constant Hcp", "setting": "[2]; [20]", "value": 0.045}]}
{"smiles": "ClCCl", "note": "[dichloromethane]", "values": [{"measurement": "Henry solubility constant Hcp at 310 K", "setting": "[6]", "value": 0.0034}, {"measurement": "Henry solubility constant Hcp", "setting": "[2]; reference: Chen et al. (2012)", "value": 0.0035}, {"measurement": "Henry solubility constant Hcp", "setting": "[2]; reference: Gossett (1987)", "value": 0.0046}, {"measurement": "Henry solubility constant Hcp", "setting": "[2]; [12]", "value": 0.0038}, {"measurement": "Henry solubility constant Hcp", "setting": "[2]; [21]", "value": 0.0042}, {"measurement": "Henry solubility constant Hcp", "setting": "[2]; [14]", "value": 0.0034}, {"measurement": "Henry solubility constant Hcp", "setting": "[2]; reference: Lutsyk et al. (2005)", "value": 0.0043}, {"measurement": "Henry solubility constant Hcp", "setting": "[2]; reference: Park et al. (1997)", "value": 0.0043}, {"measurement": "Henry solubility constant Hcp", "setting": "[2]; [9]", "value": 0.0031}, {"measurement": "Henry solubility constant Hcp at 296 K", "setting": "[4]; reference: David et al. (2000)", "value": 0.0039}, {"measurement": "Henry solubility constant Hcp at 293 K", "setting": "[5]; [16]", "value": 0.0034}, {"measurement": "Henry solubility constant Hcp at 293 K", "setting": "[5]; [17]", "value": 0.0033}, {"measurement": "Henry solubility constant Hcp at 293 K", "setting": "[5]; reference: Yu (1992)", "value": 0.0044}, {"measurement": "Henry solubility constant Hcp at 293 K", "setting": "[5]; [18]", "value": 0.0052}]}
{"smiles": "CC(=O)OCCC(C)C", "note": "[3-methylbutyl ethanoate]", "values": [{"measurement": "Henry solubility constant Hcp at 303 K", "setting": "[3]; [8]", "value": 0.088}, {"measurement": "Henry solubility constant Hcp", "setting": "[2]; reference: Ammari and Schroen (2019)", "value": 0.022}]}
